Test results from paper PMC11017246, “Discovery of GLPG2737, a Potent Type 2 Corrector of CFTR for the Treatment of Cystic Fibrosis in Combination with a Potentiator and a Type 1 Co-corrector” (Journal of Medicinal Chemistry, 2024).

Experiments:
[1] = target: T1, (h)H1 (Homo sapiens, UniProt P35367); assay: Radioligand binding, (h)H1 (Eurofins panel); settings: read-out: IC50, inhibition of radioligand binding to (h)H1
T1 construct: purchased Eurofins

[2] = Intestinal permeability on Caco-2 cells; type: in vitro ADME, human; settings: human, Caco-2, pH 7.4; A to B, n = 1; read-out: Caco-2 PA2B
Protocol: Caco-2 cells were obtained from the European Collection of Cell Cultures (ECACC) and used after a 21-day cell culture in 24-well Transwell plates. Test compounds and the references (vinblastine and propranolol) were prepared in protein-free Hanks’ balanced salt solution containing 25 mM HEPES (pH 7.4) at a concentration of 10 μM and added to either the apical or basolateral chambers of a Transwell plate assembly. Before the experiment, the integrity of the monolayer was checked by measuring the transepithelial resistance. Lucifer yellow (LY) was added to the donor buffer in all wells to assess the integrity of the cell layers by monitoring LY permeation. As LY cannot freely permeate lipophilic barriers, a high degree of LY transport indicates poor integrity of the cell layer. […] Concentrations of the compound in the samples were measured by LC–MS/MS. Apparent permeability (Papp) coefficients were calculated from the relationship: Papp = dQ/dt × 1/A × C0, where Papp is the apparent permeability coefficient (cm s^–1), dQ/dt is the amount of drug permeated per unit of time, A is the effective surface area of the artificial membrane exposed to the medium, and C0 is the initial drug concentration in the donor compartment. The efflux ratios, as an indication of active efflux from the apical cell surface, were calculated using the ratio of Papp(B → A)/Papp(A → B).

[3] = tested on: patients with CF homozygous for ΔF508; set-up: method as in PMID 31594690; settings: patients receiving ivacaftor/lumacaftor; cited from earlier work
[4] = MDCK-MDR1 permeability assay; type: in vitro ADME, canine; settings: dog, MDCK-MDR1, pH 7.4; A to B, n = 2; read-out: MDCK-MDR1 PA2B
Protocol: (§1) MDCKII-MDR1 cells were seeded on Millicell-24 cell culture insert plate assemblies at a final concentration of 0.12 × 10^6 cells/well. Cells were cultured in a CO2 incubator for 3–4 days prior to experiment start with media replacement 24 h post seeding. On the day of the experiment, cells were preincubated for 45 min with Dulbecco’s Phosphate Buffer saline (D-PBS, pH7.4), containing 1% of DMSO. Compounds were prepared in D-PBS, pH 7.4 and added to either the apical or basolateral chambers of the Millicell cell culture insert plates assembly at a final concentration of 10 μM with a final DMSO concentration of 1%. Lucifer Yellow was added to all donor buffer solutions in order to assess integrity of the cell monolayers by monitoring Lucifer Yellow permeation. […] After brief mixing and centrifugation, the supernatant was analyzed by LC-MS/MS. The apparent permeability coefficient (Papp) was calculated according to the following equation: Papp = (dQ/dT)(1/C0)(1/A), where dQ/dT = permeability rate; C0 = initial concentration in donor compartment; A = surface area of the cell monolayer (0.7 cm^2). […] The efflux ratio is calculated as Papp from B to A divided by Papp from A to B. Passive permeability (×10^–6 cm/s) is calculated by the formula: Papp from A to B × efflux ratio + 1/2.

[5] = tested on: MDCKII-MDR1 cells; assay: MDCK-MDR1 permeability assay; type: in vitro ADME, canine; settings: A to B, n = 2
Protocol: as §1

[6] = In vitro micronucleus test; type: cell-based
[7] = Hepatocyte stability, monkey; type: in vitro ADME; settings: monkey hepatocytes
Protocol: The hepatocyte stability assay was performed by incubation of test compound at 1 μM, 0.03% DMSO in modified Krebs–Henseleit buffer with suspension of pooled cryopreserved hepatocytes (BioIVT, Hicksville, NY, USA) from mouse, rat, dog, or human (BioIVT, Hicksville, NY, USA) at 0.5 million viable hepatocytes/mL. Before adding the hepatocytes (time zero) and after 10, 20, 45, 90, 120, and 180 min of incubation (n = 2) at 37 °C while gently shaking, the reaction was stopped and proteins were precipitated with an excess of acetonitrile containing an internal standard. The samples were mixed, centrifuged, and filtered, and the supernatant was analyzed by liquid chromatography–mass spectrometry/mass spectrometry (LC–MS/MS). The instrument responses (peak areas/IS peak areas) were referenced to the zero-time point samples (considered as 100%) in order to determine the percentage of compound remaining.

[8] = Liver microsomal stability, monkey; type: in vitro ADME; settings: matrix not given, read-out: Clintr,unbound monkey (converted)
Protocol: The microsomal stability assay was performed by incubation of test compound at 1 μM, 0.2% DMSO in phosphate buffer with microsomes (0.5 mg/mL) from mouse, rat, dog, or human (Xeno-Tech, Kansas City, KS, USA), and cofactors with final concentrations of 0.6 U/mL glucose-6- phosphate dehydrogenase, 3.3 mM MgCl2, 3.3 mM glucose-6-phosphate, and 1.3 mM nicotinamide adenine dinucleotide phosphate (NADP)+. Before addition of the microsomes (time zero) and after 30 min of incubation at 37 °C with shaking, the reaction was stopped, and proteins were precipitated with an excess of acetonitrile containing an internal standard. The samples were mixed, centrifuged, and filtered, and the supernatant was analyzed by liquid chromatography–mass spectrometry/mass spectrometry (LC–MS/MS). […] In vitro unbound intrinsic clearance (CLint,u) was calculated from the half-life using the following equations: [drawing 1] […]
Equilibrium dialysis is a technique used to measure microsomal binding. […] Each compound was analyzed in duplicate for 4 h at 37 °C. At the end of incubation, both chambers were sampled and analyzed by LC-MS/MS. The unbound microsomal fraction (fu, mic) was calculated as the concentration in buffer divided by the total concentration in the microsomal side. […]

T1 sequence (P35367 whole entry): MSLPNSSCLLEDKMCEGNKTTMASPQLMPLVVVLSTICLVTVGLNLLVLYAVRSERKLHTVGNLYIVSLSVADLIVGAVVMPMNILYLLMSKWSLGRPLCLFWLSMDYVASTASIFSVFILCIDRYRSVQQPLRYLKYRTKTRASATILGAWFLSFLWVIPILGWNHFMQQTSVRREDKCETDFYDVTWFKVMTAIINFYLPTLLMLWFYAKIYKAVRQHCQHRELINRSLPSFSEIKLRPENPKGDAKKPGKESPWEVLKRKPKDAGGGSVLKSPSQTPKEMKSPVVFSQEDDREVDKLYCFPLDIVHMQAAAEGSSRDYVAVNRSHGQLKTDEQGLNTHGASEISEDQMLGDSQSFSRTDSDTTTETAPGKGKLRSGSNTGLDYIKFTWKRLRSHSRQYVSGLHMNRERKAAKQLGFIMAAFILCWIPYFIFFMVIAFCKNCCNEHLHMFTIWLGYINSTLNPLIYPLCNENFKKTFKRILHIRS

IC50 [1]: 8 µM
Papp A→B at 1 h, 10 μM [2]: 24.5 ×10⁻⁶ cm/s
Papp A→B at 1 h, 10 μM [4]: 5.45 ×10⁻⁶ cm/s
MDCK-MDR1 PA2B [5]: 5.45 cm × 10^–6 s^–1
Hepatocyte stability: %LBF monkey [7]: 65 %LBF
Hepatocyte stability: predicted hepCl monkey ([7]; 1 µM): 28.8 mL/min/kg
CLint scaled at 1 μM [8]: 347 mL/min/kg
Compound: COC1CCN(C2CCN(c3cc(C(=O)NS(=O)(=O)N(C)C)nc4c3c(C3CCC3)nn4-c3ccc(F)cc3)CC2)CC1 [Compound 52, 3-Cyclobutyl-N-(N,N-dimethylsulfamoyl)-1-(4-fluorophenyl)-4-(4-methoxy-[1,4′-bipiperidin]-1′-yl)-1H-pyrazolo[3,4-b]pyridine-6-carboxamide]
efficacy versus placebo [3]: improved efficacy versus placebo
tolerability [3]: well tolerated
clastogenicity / aneugenicity [6]: not mutagenic, clastogenic, or aneugenic
